# Test results from patent publication US20070292488A1, “METHOD FOR TREATMENT OF WOUND TREATMENT USING AGANOCIDES” (priority 2006, published 2007).
# Columns and labels:
# test bacteria = experiment: Comparison of hypochlorous acid with Dakin's solution (antimicrobial activity, therapeutic index, time kill); details: in the regimen described
# Source text: “Time kill” refers to an in vitro measure of how fast a given antimicrobial can kill test bacteria.
# This means that the time to wound closure may be reduced using hypochlorous acid.
# [1] = test system: human secondary intention wound; experiment: Vacuum-assisted wound treatment combined with intermittent instillation of aganocide (HOCl) on a human wound; format: in vivo; details: 0.45% NaCl, pH about 4
# Experimental: A human secondary intention wound approximately 3-4 cm in diameter is fitted with a polyurethane sponge, pore size 400-600 microns cut to the size of the wound and twice the thickness of the wound and covered with an adhesive film, per instructions on the vacuum system. The outlet is connected to an IV bag (500 ml) with 0.01% HOCl, 0.45% NaCl, and pH of about 4 and is elevated to between 0.1 and 1 meter above the wound. A 1-cm hole is punctured in the adhesive film, and a second adhesive film is used to cover the hole, with the second outlet connected to the vacuum pump.
# Each cycle consists of three phases: a 2-hour pumping phase when the vacuum (125 mm Hg negative pressure) is connected and the IV bag is disconnected; […] and the IV bag is connected and the aganocide is applied to the wound; […] IV bag are disconnected.
# Each treatment has about 24 cycles and starts with a pumping phase and proceeds for 48 hours. When the treatment is completed, the dressings are changed and the treatment is repeated until full granulation has been promoted and the granulation tissue is within the level of the skin, approximately 30 to 100 days, depending on the depth of the original wound. […]
smiles,measurement,setting,value
OCl [hypochlorous acid],antimicrobial activity in comparison with Dakin's solution,test bacteria,improved
same,therapeutic index in comparison with Dakin's solution,test bacteria,improved
same,time kill in comparison with Dakin's solution,test bacteria,improved
same,wound healing results of combination regimen compared with vacuum alone or aganocide alone,"[1]; Example 1: 0.01% HOCl, 1 second instilling, 15 second holding",superior
same,wound healing results of combination regimen compared with vacuum alone or aganocide alone,"[1]; Example 2: 0.01% HOCl, 5 second instilling, 5 minute holding",superior
